This passage reports pest or weed control and melting point results from patent US20170050957A1, “4-AMINO-6-(HETEROCYCLIC)PICOLINATES AND 6-AMINO-2-(HETEROCYCLIC)PYRIMIDINE-4-CARBOXYLATES AND THEIR USE AS HERBICIDES” (Dow AgroSciences LLC, priority 2013, published 2017).

The test system of data set [1] is Key Grass and Sedge Weeds as well as Grass Crops. In words: Post-emergent Test II herbicidal activity (Table 16). Conditions: post-emergence, 336 h, 140 g ai/ha, 14 days after application. The class given is in vivo. A digest of the protocol:
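Visual injury rating (0 = none, 100 = complete kill) taken 14 d after treatment, relative to untreated plants. Compounds in acetone/DMSO with crop oil concentrate and Triton X-155 were track-sprayed at 187 L/ha onto seedlings at the first-second true leaf stage.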

For data set [2], the system named is Key Broadleaf Weed and Crop Species. In words: Post-emergent Test II herbicidal activity (Table 15). Conditions: post-emergence, 336 h, 140 g ai/ha, 14 d. The class given is in vivo. How it is done: Post-emergent Test II: Seeds or nutlets of the desired test plant species were planted in Sun Gro Metro-Mix® 360 planting mixture, which typically has a pH of 6.0 to 6.8 and an organic matter content of about 30 percent, in plastic pots with a surface area of 64 square centimeters. When required to ensure good germination and healthy plants, a fungicide treatment and/or other chemical or physical treatment was applied. The plants were grown for 7-21 d in a greenhouse with an approximate 15 h photoperiod which was maintained at about 23-29° C. during the day and 22-28° C. during the night. Nutrients and water were added on a regular basis and supplemental lighting was provided with overhead metal halide 1000-Watt lamps as necessary. The plants were employed for testing when they reached the first or second true leaf stage.
A weighed amount, determined by the highest rate to be tested, of each test compound was placed in a 25 mL glass vial and was dissolved in 4 mL of a 97:3 v/v mixture of acetone and DMSO to obtain concentrated stock solutions. […] The concentrated stock solutions obtained were diluted with 20 mL of an aqueous mixture containing acetone, water, isopropyl alcohol, DMSO, Atplus 411F crop oil concentrate, and Triton® X-155 surfactant in a 48.5:39:10:1.5:1.0:0.02 v/v ratio to obtain spray solutions containing the highest application rates. Additional application rates were obtained by serial dilution of 12 mL of the high rate solution into a solution containing 2 mL of 97:3 v/v mixture of acetone and DMSO and 10 mL of an aqueous mixture containing acetone, water, isopropyl alcohol, DMSO, Atplus 411F crop oil concentrate, and Triton X-155 surfactant in a 48.5:39:10:1.5:1.0:0.02 v/v ratio to obtain 1/2×, 1/4×, 1/8× and 1/16× rates of the high rate. Compound requirements are based upon a 12 mL application volume at a rate of 187 liters per hectare (L/ha). Formulated compounds were applied to the plant material with an overhead Mandel track sprayer equipped with 8002E nozzles calibrated to deliver 187 L/ha over an application area of 0.503 square meters at a spray height of 18 inches (43 cm) above the average plant canopy height. Control plants were sprayed in the same manner with the solvent blank.
The treated plants and control plants were placed in a greenhouse as described above and watered by subirrigation to prevent wash-off of the test compounds. After 14 d, the condition of the test plants as compared with that of the untreated plants was determined visually and scored on a scale of 0 to 100 percent where 0 corresponds to no injury and 100 corresponds to complete kill.

Where [3] appears, read: Cyperus esculentus, yellow nutsedge (Cyperus esculentus), read-out: Visual Growth Reduction (%) 14 Days After Application CYPES.
Setting [4] is: Echinochloa crus-galli, barnyardgrass (Echinochloa crus-galli), read-out: Visual Growth Reduction (%) 14 Days After Application ECHCG.
Setting [5] is: Oryza sativa, rice (Oryza sativa), read-out: Visual Growth Reduction (%) 14 Days After Application ORYSA.
The mark [6] stands for this setting: Setaria faberi, giant foxtail (Setaria faberi), read-out: Visual Growth Reduction (%) 14 Days After Application SETFA.
The mark [7] stands for this setting: Triticum aestivum, wheat, spring (Triticum aestivum), read-out: Visual Growth Reduction (%) 14 Days After Application TRZAS.
Setting [8] is: Zea mays, maize, corn (Zea mays), read-out: Visual Growth Reduction (%) 14 Days After Application ZEAMX.
Where [9] appears, read: Abutilon theophrasti, velvetleaf (Abutilon theophrasti), read-out: Visual Growth Reduction (%) 14 Days After Application, ABUTH.
The mark [10] stands for this setting: Brassica napus, oilseed rape, canola (Brassica napus), read-out: Visual Growth Reduction (%) 14 Days After Application, BRSNN.
Setting [11] is: Chenopodium album, lambsquarters (Chenopodium album), read-out: Visual Growth Reduction (%) 14 Days After Application, CHEAL.
The mark [12] stands for this setting: Euphorbia heterophylla, wild poinsettia (Euphorbia heterophylla), read-out: Visual Growth Reduction (%) 14 Days After Application, EPHHL.
[13] abbreviates: Helianthus annuus, sunflower (Helianthus annuus), read-out: Visual Growth Reduction (%) 14 Days After Application, HELAN.

Like-named read-outs stand apart in the source and are kept apart here.

In turn, `COC(=O)c1nc(-c2ccc3cnn(C)c3c2)c(F)c(N)c1Cl` [Compound 4.07] displayed a melting point of 187 to 190 °C. Moreover, in data set [1] (setting [3]), the pest or weed control at 140 g/ha was in the range of 0 to 29%. Also, in data set [1] (setting [4]), the pest or weed control at 140 g/ha fell in the range of 0 to 29%. In data set [1] (setting [5]), the pest or weed control at 140 g/ha was in the range of 0 to 29%. Also, the pest or weed control at 140 g/ha in data set [1] (setting [6]) was in the range of 0 to 29%. Moreover, the pest or weed control at 140 g/ha in data set [1] (setting [7]) is 0 to 29%. Further, the pest or weed control at 140 g/ha in data set [1] (setting [8]) fell in the range of 0 to 29%. In data set [2] (setting [9]), the pest or weed control at 140 g/ha is 45 to 59%. In addition, the pest or weed control at 140 g/ha in data set [2] (setting [10]) was 45 to 59%. Further, the pest or weed control at 140 g/ha in data set [2] (setting [11]) is 0 to 29%. The pest or weed control at 140 g/ha in data set [2] (setting [12]) lay within 60 to 74%. Also, the pest or weed control at 140 g/ha in data set [2] (setting [13]) lay within 95 to 100%.
In turn, `Cn1ncc2ccc(-c3nc(C(=O)O)c(Cl)c(N)c3F)cc21` [Compound 4.08] came in with a melting point of 182 to 184 °C. In data set [1] (setting [3]), the pest or weed control at 140 g/ha lay in the range of 0 to 29%. The pest or weed control at 140 g/ha in data set [1] (setting [4]) is 0 to 29%. Moreover, in data set [1] (setting [5]), the pest or weed control at 140 g/ha was 0 to 29%. Also, the pest or weed control at 140 g/ha in data set [1] (setting [6]) is 0 to 29%. Also, the pest or weed control at 140 g/ha in data set [1] (setting [7]) lay in the range of 0 to 29%. In addition, in data set [1] (setting [8]), the pest or weed control at 140 g/ha fell in the range of 0 to 29%. For the same molecule, the pest or weed control at 140 g/ha in data set [2] (setting [9]) fell in the range of 0 to 29%. In addition, the pest or weed control at 140 g/ha in data set [2] (setting [10]) lay in the range of 60 to 74%. The pest or weed control at 140 g/ha in data set [2] (setting [11]) is 95 to 100%. In data set [2] (setting [12]), the pest or weed control at 140 g/ha fell in the range of 0 to 29%. The pest or weed control at 140 g/ha in data set [2] (setting [13]) was in the range of 85 to 94%.
